Four compounds from patent US7795299B2, “Neo-tanshinlactone and analogs as potent and selective anti-breast cancer agents” (The University of North Carolina at Chapel Hill, priority 2004, dated 2010) can be followed below.

≈ marks a conversion by molar mass, not a printed value.

In one data set the test system is MCF-7 (estrogen receptor positive breast cancer). Briefly: In vitro anticancer assay (SRB), MCF-7. The format is cell-based, human. The following applies: Homo sapiens, MCF7, 72 h; concentration that reduces cell growth by 50%, 3 days in culture, SRB; read-out: ED50, MCF-7 (ER+). As for the experimental part:
(§1) All stock cultures were grown in T-25 flasks. Freshly trypsinized cell suspensions were seeded in 96-well microtiter plates at densities of 1500-7500 cells per well with compounds added from DMSO-diluted stock. After 3 days in culture, attached cells were fixed with cold 50% trichloroacetic acid and then stained with 0.4% sulforhodamine B (SRB). The absorbency at 562 nm was measured using a microplate reader after solubilizing the bound dye.
(§2) Biological assay. All stock cultures are grown in T-25 flasks. Freshly trypsinized cell suspensions were seeded in 96-well microtitre plates at densities of 1500-7500 cells per well with compounds added from DMSO-diluted stock. After 3 days in culture, attached cells were fixed with cold 50% trichloroacetic acid and then stained with 0.4% sulforhodamine B (SRB). The absorbency at 562 nm was measured using a microplate reader after solubilizing the bound dye.
For the compound `COc1cc2c3occ(C)c3c(=O)oc2c2ccccc12` [Compound 2e, 6-Methoxy-17-methyl-11,15-dioxa-cyclopenta[a]phenanthren-12-one], the IC50 turned out to be 5 µg/mL (≈ 17.8 µM).

Regarding `O=c1oc2c(cc(Cl)c3ccccc32)c2c1C(O)CO2` (centres unmarked) [Compound 3d, 6-Chloro-17-hydroxy-16,17-dihydro-11,15-dioxa-cyclopenta[a]phenanthren-12-one], the IC50 was 5.6 µg/mL (≈ 19.4 µM).

For the compound `COc1cc2c3occc3c(=O)oc2c2ccccc12` [Compound 4e, 6-Methoxy-11,15-dioxa-cyclopenta[a]phenanthren-12-one], the IC50 was determined as 3.4 µg/mL (≈ 12.8 µM).

Consider `COc1cc2c3c(c(=O)oc2c2ccccc12)C(O)CO3` (centres unmarked) [Compound 3e, 17-Hydroxy-6-methoxy-16,17-dihydro-11,15-dioxa-cyclopenta[a]phenanthren-12-one], for which the IC50 came out at 5.6 µg/mL (≈ 19.7 µM).

For the next data set, the system named is ZR-75-1 (estrogen receptor positive breast cancer). Nature of the data set: In vitro anticancer assay (SRB), ZR-75-1. In kind it is cell-based, human. The following applies: Homo sapiens, ZR-75-1, 72 h, concentration that reduces cell growth by 50%, 3 days in culture, read-out: ED50, ZR-75-1 (ER+). The protocol: as §1, §2
As for `COc1cc2c3occ(C)c3c(=O)oc2c2ccccc12` [Compound 2e, 6-Methoxy-17-methyl-11,15-dioxa-cyclopenta[a]phenanthren-12-one], the IC50 was above 10 µg/mL.

Turning to `O=c1oc2c(cc(Cl)c3ccccc32)c2c1C(O)CO2` (centres unmarked) [Compound 3d, 6-Chloro-17-hydroxy-16,17-dihydro-11,15-dioxa-cyclopenta[a]phenanthren-12-one], the IC50 is above 10 µg/mL.

For the compound `COc1cc2c3occc3c(=O)oc2c2ccccc12` [Compound 4e, 6-Methoxy-11,15-dioxa-cyclopenta[a]phenanthren-12-one], the IC50 was 8.5 µg/mL (≈ 31.9 µM).

Turning to `COc1cc2c3c(c(=O)oc2c2ccccc12)C(O)CO3` (centres unmarked) [Compound 3e, 17-Hydroxy-6-methoxy-16,17-dihydro-11,15-dioxa-cyclopenta[a]phenanthren-12-one], the IC50 worked out at 5.7 µg/mL (≈ 20.1 µM).

The next data set has as its system SK-BR-3 (HER-2-overexpressing breast cancer). Nature of the data set: In vitro anticancer assay (SRB), SK-BR-3. The format is cell-based, human. The settings on record: Homo sapiens, SK-BR-3, 72 h; concentration that reduces cell growth by 50%, 3 days in culture, SRB; read-out: ED50, SK-BR-3 (ER−, HER2+). The protocol: (§3) In Vitro Anticancer Assay (Nakanishi, Y. et al., J. Med. Chem. 2003, 46, 3185). All stock cultures were grown in T-25 flasks. Freshly trypsinized cell suspensions were seeded in 96-well microtiter plates at densities of 1500-7500 cells per well with compounds added from DMSO-diluted stock. After 3 days in culture, attached cells were fixed with cold 50% trichloroacetic acid and then stained with 0.4% sulforhodamine B (SRB). The absorbency at 562 nm was measured using a microplate reader after solubilizing the bound dye. The mean ED50 is the concentration of agent that reduces cell growth by 50% under the experimental conditions and is the average from at least three independent determinations that were reproducible and statistically significant (FIG. 2). The following human tumor cell lines were used in the assay: A549 (non small cell lung cancer), MCF-7 (estrogen receptor positive breast cancer), ZR-75-1 (estrogen receptor positive breast cancer), MDA-MB-231 (estrogen receptor negative breast cancer), HS 587-T (estrogen receptor negative breast cancer), SK− BR-3 (HER-2-overexpressing breast cancer), A431 (EGFRoverexpressing skin cancer), LN-CaP (AR-dependent prostate cancer), SW620 (colon cancer), PC-3 (prostate cancer), KB (nasopharyngeal carcinoma), KB-VIN (vincristine-resistant KB subline). All cell lines were obtained from the Lineberger Comprehensive Cancer Center (UNC-CH) or from ATCC (Rockville, Md.) and were cultured in RPMI-1640 medium supplemented with 25 mMHEPES, 0.25% sodium bicarbonate, 10% fetal bovine serum, and 100 μg/mL kanamycin.
(§4) Biological assay. All stock cultures are grown in T-25 flasks. Freshly trypsinized cell suspensions were seeded in 96-well microtitre plates at densities of 1500-7500 cells per well with compounds added from DMSO-diluted stock. After 3 days in culture, attached cells were fixed with cold 50% trichloroacetic acid and then stained with 0.4% sulforhodamine B (SRB). The absorbency at 562 nm was measured using a microplate reader after solubilizing the bound dye. The mean ED50 is the concentration of agent that reduces cell growth by 50% under the experimental conditions and is the average from at least three independent determinations that were reproducible and statistically significant. The following human tumor cell lines were used in the assay: A549 (non-small cell lung cancer), MCF-7 (estrogen receptor positive breast cancer), ZR-75-1 (estrogen receptor positive breast cancer), MDA MB-231 (estrogen receptor negative breast cancer), HS 587-T (estrogen receptor negative breast cancer), SK-BR-3 (estrogen receptor negative, HER-2 over-expressing breast cancer), A431 (EGFR over-expressing skin cancer), LN-CaP (AR-dependent prostate cancer), SW620 (colon cancer), PC-3 (prostate cancer), KB (nasopharyngeal carcinoma), KB-VIN (Vincristine resistant KB subline). All cell lines were obtained from the Lineberg Cancer Center (UNC-CH) or from ATCC (Rockville, Md.) and were cultured in RPMI-1640 medium supplemented with 25 mM HEPES, 0.25% sodium bicarbonate, 10% fetal bovine serum, and 100 μg/mL kanamycin.
Take `COc1cc2c3occ(C)c3c(=O)oc2c2ccccc12` [Compound 2e, 6-Methoxy-17-methyl-11,15-dioxa-cyclopenta[a]phenanthren-12-one]: the IC50 is 8.6 µg/mL (≈ 30.7 µM).

Regarding `O=c1oc2c(cc(Cl)c3ccccc32)c2c1C(O)CO2` (centres unmarked) [Compound 3d, 6-Chloro-17-hydroxy-16,17-dihydro-11,15-dioxa-cyclopenta[a]phenanthren-12-one], the IC50 was determined as 8 µg/mL (≈ 27.7 µM).

In the case of `COc1cc2c3occc3c(=O)oc2c2ccccc12` [Compound 4e, 6-Methoxy-11,15-dioxa-cyclopenta[a]phenanthren-12-one], the IC50 is 4 µg/mL (≈ 15 µM).

Consider `COc1cc2c3c(c(=O)oc2c2ccccc12)C(O)CO3` (centres unmarked) [Compound 3e, 17-Hydroxy-6-methoxy-16,17-dihydro-11,15-dioxa-cyclopenta[a]phenanthren-12-one], for which the IC50 was determined as 9 µg/mL (≈ 31.7 µM).

The test system of the next data set is A431 (EGFR over-expressing skin cancer). Nature of the data set: In vitro anticancer assay (SRB), A431. The format is cell-based, human. The following applies: Homo sapiens, A-431, 72 h; concentration that reduces cell growth by 50%, 3 days in culture, SRB; read-out: ED50, A431. The protocol:
as §3, §4
As for `COc1cc2c3occ(C)c3c(=O)oc2c2ccccc12` [Compound 2e, 6-Methoxy-17-methyl-11,15-dioxa-cyclopenta[a]phenanthren-12-one], the IC50 worked out at 9.5 µg/mL (≈ 33.9 µM).

As to `O=c1oc2c(cc(Cl)c3ccccc32)c2c1C(O)CO2` (centres unmarked) [Compound 3d, 6-Chloro-17-hydroxy-16,17-dihydro-11,15-dioxa-cyclopenta[a]phenanthren-12-one], the IC50 was found to be 7.8 µg/mL (≈ 27 µM).

In the case of `COc1cc2c3occc3c(=O)oc2c2ccccc12` [Compound 4e, 6-Methoxy-11,15-dioxa-cyclopenta[a]phenanthren-12-one], the IC50 amounted to 9.5 µg/mL (≈ 35.7 µM).

Turning to `COc1cc2c3c(c(=O)oc2c2ccccc12)C(O)CO3` (centres unmarked) [Compound 3e, 17-Hydroxy-6-methoxy-16,17-dihydro-11,15-dioxa-cyclopenta[a]phenanthren-12-one], the IC50 was found to be 6.5 µg/mL (≈ 22.9 µM).

The test system of the next data set is SW620 (colon cancer). Nature of the data set: In vitro anticancer assay (SRB), SW620. In kind it is cell-based, human. The settings on record: Homo sapiens, SW-620, 72 h; concentration that reduces cell growth by 50%, 3 days in culture, SRB; read-out: ED50, SW620. The protocol: as §3, §4
For `COc1cc2c3occ(C)c3c(=O)oc2c2ccccc12` [Compound 2e, 6-Methoxy-17-methyl-11,15-dioxa-cyclopenta[a]phenanthren-12-one], the IC50 came out at 9 µg/mL (≈ 32.1 µM).

Regarding `O=c1oc2c(cc(Cl)c3ccccc32)c2c1C(O)CO2` (centres unmarked) [Compound 3d, 6-Chloro-17-hydroxy-16,17-dihydro-11,15-dioxa-cyclopenta[a]phenanthren-12-one], the IC50 was found to be 4.2 µg/mL (≈ 14.5 µM).

On to `COc1cc2c3occc3c(=O)oc2c2ccccc12` [Compound 4e, 6-Methoxy-11,15-dioxa-cyclopenta[a]phenanthren-12-one], for which the IC50 is 4 µg/mL (≈ 15 µM).

As to `COc1cc2c3c(c(=O)oc2c2ccccc12)C(O)CO3` (centres unmarked) [Compound 3e, 17-Hydroxy-6-methoxy-16,17-dihydro-11,15-dioxa-cyclopenta[a]phenanthren-12-one], the IC50 is above 10 µg/mL.

The next data set deals with KB (nasopharyngeal carcinoma). Nature of the data set: In vitro anticancer assay (SRB), KB. The settings on record: Homo sapiens, 72 h; concentration that reduces cell growth by 50%, 3 days in culture, SRB; read-out: ED50, KB. The format is cell-based, human. The protocol: as §3, §4
As for `COc1cc2c3occ(C)c3c(=O)oc2c2ccccc12` [Compound 2e, 6-Methoxy-17-methyl-11,15-dioxa-cyclopenta[a]phenanthren-12-one], the IC50 was above 10 µg/mL.

For `O=c1oc2c(cc(Cl)c3ccccc32)c2c1C(O)CO2` (centres unmarked) [Compound 3d, 6-Chloro-17-hydroxy-16,17-dihydro-11,15-dioxa-cyclopenta[a]phenanthren-12-one], the IC50 was determined as 9.5 µg/mL (≈ 32.9 µM).

In the case of `COc1cc2c3occc3c(=O)oc2c2ccccc12` [Compound 4e, 6-Methoxy-11,15-dioxa-cyclopenta[a]phenanthren-12-one], the IC50 was determined as 9.5 µg/mL (≈ 35.7 µM).

Regarding `COc1cc2c3c(c(=O)oc2c2ccccc12)C(O)CO3` (centres unmarked) [Compound 3e, 17-Hydroxy-6-methoxy-16,17-dihydro-11,15-dioxa-cyclopenta[a]phenanthren-12-one], the IC50 came out at 6.8 µg/mL (≈ 23.9 µM).

The test system of the next data set is several human cancer cell lines. Briefly: Cytotoxic activity against several human tumor cell lines (panel, overall statements). The format is cell-based. The following applies: several human tumor cell lines, Table 4. As for the experimental part:
as §3
Biological assay. All stock cultures are grown in T-25 flasks. Freshly trypsinized cell suspensions were seeded in 96-well microtitre plates at densities of 1500-7500 cells per well with compounds added from DMSO-diluted stock. After 3 days in culture, attached cells were fixed with cold 50% trichloroacetic acid and then stained with 0.4% sulforhodamine B (SRB). The absorbency at 562 nm was measured using a microplate reader after solubilizing the bound dye. […]
Turning to `COc1cc2c3occ(C)c3c(=O)oc2c2ccccc12` [Compound 2e, 6-Methoxy-17-methyl-11,15-dioxa-cyclopenta[a]phenanthren-12-one], the “overall cytotoxic activity (in words)” value is on record as “did not show strong activity”.

System in another data set: not given
Assay: not given
Conditions: not given
Broadly, the melting point is the temperature of the solid-liquid transition. As to `COc1cc2c3occ(C)c3c(=O)oc2c2ccccc12` [Compound 2e, 6-Methoxy-17-methyl-11,15-dioxa-cyclopenta[a]phenanthren-12-one], the melting point is 203 to 205 °C.

Take `O=c1oc2c(cc(Cl)c3ccccc32)c2c1C(O)CO2` (centres unmarked) [Compound 3d, 6-Chloro-17-hydroxy-16,17-dihydro-11,15-dioxa-cyclopenta[a]phenanthren-12-one]: the melting point amounted to 150 °C.

In turn, `COc1cc2c3occc3c(=O)oc2c2ccccc12` [Compound 4e, 6-Methoxy-11,15-dioxa-cyclopenta[a]phenanthren-12-one] displayed a melting point of 194 to 195 °C.

The compound `COc1cc2c3c(c(=O)oc2c2ccccc12)C(O)CO3` (centres unmarked) [Compound 3e, 17-Hydroxy-6-methoxy-16,17-dihydro-11,15-dioxa-cyclopenta[a]phenanthren-12-one] displayed a melting point of 210 to 212 °C.
